# Data reported in publication PMC7158045 (BMC Plant Biology, 2020).
# Counter-ions that a name gives are not always drawn. Like-named read-outs stand apart in the source and are kept apart here.
# What was measured:
# [1] = target: T1, ZmDRIK1 (DROUGHT RESPONSIVE INACTIVE KINASE 1), kinase domain (Zea mays, UniProt C0P4K9); assay: ITC; cocrystal structure at […] Å; DSF (ΔTm > […] °C); type: binding
# T1 construct: gene ZEAMMB73_Zm00001d028770; ZmDRIK1-KD R187-S514 (kinase domain)
# T1 sequence (C0P4K9 187-514): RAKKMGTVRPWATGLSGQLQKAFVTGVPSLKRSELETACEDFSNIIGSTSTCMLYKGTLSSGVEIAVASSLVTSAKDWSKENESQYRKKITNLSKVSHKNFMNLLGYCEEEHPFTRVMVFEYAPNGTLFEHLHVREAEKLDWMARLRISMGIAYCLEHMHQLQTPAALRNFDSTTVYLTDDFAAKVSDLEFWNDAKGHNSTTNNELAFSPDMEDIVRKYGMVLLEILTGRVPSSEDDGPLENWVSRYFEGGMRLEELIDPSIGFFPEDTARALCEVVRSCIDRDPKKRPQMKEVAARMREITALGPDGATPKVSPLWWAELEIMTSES
# [2] = target: T2, ZmDRIK1-R187-P492 (Zea mays, UniProt C0P4K9); assay: biochemical
# T2 construct: kinase domain, R187-P492
# T2 sequence (C0P4K9 1-514): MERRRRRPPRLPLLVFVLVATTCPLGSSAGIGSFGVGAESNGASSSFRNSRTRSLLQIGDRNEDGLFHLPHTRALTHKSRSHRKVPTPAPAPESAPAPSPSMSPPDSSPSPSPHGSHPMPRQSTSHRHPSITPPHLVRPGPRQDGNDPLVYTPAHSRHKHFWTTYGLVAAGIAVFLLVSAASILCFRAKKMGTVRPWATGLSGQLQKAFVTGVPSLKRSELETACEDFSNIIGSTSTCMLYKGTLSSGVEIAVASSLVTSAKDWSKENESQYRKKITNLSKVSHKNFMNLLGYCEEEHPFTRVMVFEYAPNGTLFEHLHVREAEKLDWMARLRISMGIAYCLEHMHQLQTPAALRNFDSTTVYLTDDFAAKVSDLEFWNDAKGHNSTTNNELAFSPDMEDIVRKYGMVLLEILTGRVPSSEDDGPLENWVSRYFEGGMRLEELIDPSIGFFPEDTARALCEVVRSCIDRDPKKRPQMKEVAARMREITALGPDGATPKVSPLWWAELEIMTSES
# [3] = target: T3, ZmDRIK1-K217-S514 (Zea mays, UniProt C0P4K9); assay: biochemical
# T3 construct: kinase domain, K217-S514
# T3 sequence (C0P4K9 1-514): T2 sequence (C0P4K9 1-514)
# [4] = target: T1, ZmDRIK1 (DROUGHT RESPONSIVE INACTIVE KINASE 1), kinase domain; assay: biochemical
# [5] = target: T4, ZmDRIK1-K217-P492 (Zea mays, UniProt C0P4K9); assay: biochemical
# T4 construct: kinase domain, K217-P492
# T4 sequence (C0P4K9 1-514): T2 sequence (C0P4K9 1-514)
# [6] = read-out: dTm B, DSF, Boltzmann fit, 0.1% DMSO
# [7] = read-out: dTm B, sheet ZmDRIK1-K217-S514;, DSF, Boltzmann fit, 0.1% DMSO
# [8] = read-out: dTm B, sheet ZmDRIK1-R187-S514;, DSF, Boltzmann fit, 0.1% DMSO
# [9] = read-out: dTm B, sheet ZmDRIK1-K217-P492;, DSF, Boltzmann fit, 0.1% DMSO
Kd [1],"ΔTm at 10 µM [2, 6]","ΔTm at 10 µM [3, 7]","ΔTm at 10 µM [4, 8]","ΔTm at 10 µM [5, 9]",Compound,ΔTm at 10 µM ([2]; read-out: dTm B),ΔTm at 10 µM ([3]; read-out: dTm B),ΔTm at 10 µM ([4]; read-out: dTm B),ΔTm at 10 µM ([5]; read-out: dTm B)
0.551 µM,4.32 °C,4.13 °C,4.28 °C,3.49 °C,Cc1cc(Nc2cc(N3CCN(C)CC3)nc(/C=C/c3ccccc3)n2)n[nH]1 [ENMD-2076],,,,
,-0.154 °C,-0.239 °C,-0.824 °C,-0.91 °C,COc1cc2/c(=N/c3ccc(Br)cc3F)nc[nH]c2cc1OCC1CCN(C)CC1 [Vandetanib (ZD6474)],,,,
,-0.314 °C,-0.516 °C,-0.97 °C,-0.993 °C,C[C@@H]1COC(Nc2ccc3ncnc(Nc4ccc(OCc5nccs5)c(Cl)c4)c3c2)=N1 [Varlitinib],,,,
,-0.124 °C,-0.391 °C,-0.775 °C,-1.11 °C,Clc1ccc(Nc2nnc(Cc3ccncc3)c3ccccc23)cc1 [Vatalanib (PTK787) 2HCl],,,,
,-7.37 °C,-0.89 °C,-21.5 °C,-0.0662 °C,CCCS(=O)(=O)Nc1ccc(F)c(C(=O)c2c[nH]c3ncc(-c4ccc(Cl)cc4)cc23)c1F [Vemurafenib (PLX4032)],,,,
,-0.282 °C,-0.29 °C,-0.792 °C,-1.3 °C,CC[C@@H]1C(=O)N(C)c2cnc(Nc3ccc(C(=O)N[C@H]4CC[C@H](N5CCN(CC6CC6)CC5)CC4)cc3OC)nc2N1C(C)C [Volasertib (BI 6727)],,,,
,-0.498 °C,-0.731 °C,-0.643 °C,-1.19 °C,c1cncc(CN2CCC(n3ncc4c(N5CCOCC5)nc(-c5ccc6[nH]ccc6c5)nc43)CC2)c1 [WAY-600],,,,
,,,,,COc1ccc(N(C(=O)Oc2c(C)cccc2C)c2ccnc(Nc3ccc(N4CCN(C)CC4)cc3)n2)c(OC)c1 [WH-4-023],-0.703 °C,-0.646 °C,-0.841 °C,-0.826 °C
,1.76 °C,2.03 °C,0.428 °C,0.694 °C,COc1cc2ncnc(Nc3ccc(O)c(Br)c3)c2cc1OC [WHI-P154],,,,
,-2 °C,-2.48 °C,-3.39 °C,-4.29 °C,C[C@H](NC(=O)/C(C#N)=C/c1cccc(Br)n1)c1ccccc1 [WP1066],,,,
,0.97 °C,-0.255 °C,-0.687 °C,-1.11 °C,COC(=O)Nc1ccc(-c2nc(N3CCOCC3)c3cnn(C4CCN(C(=O)OC)CC4)c3n2)cc1 [WYE-354],,,,
,-0.00788 °C,-0.0548 °C,-0.897 °C,-0.696 °C,C=CC(=O)Nc1cccc(Oc2nc(Nc3ccc(N4CCN(C)CC4)cc3)ncc2Cl)c1 [WZ3146],,,,
,-0.434 °C,-0.557 °C,-1.27 °C,-1.2 °C,C=CC(=O)Nc1cccc(Oc2nc(Nc3ccc(N4CCN(C)CC4)cc3OC)ncc2Cl)c1 [WZ4002],,,,
,-0.432 °C,-0.358 °C,-0.786 °C,-1.1 °C,CCC(=O)Nc1cccc(Oc2nc(Nc3ccc(N4CCN(C)CC4)cc3OC)ncc2Cl)c1 [WZ4003],,,,
,-0.275 °C,-0.291 °C,-0.927 °C,-0.667 °C,C=CC(=O)Nc1cccc(Sc2nc(Nc3ccc(N4CCN(C)CC4)cc3)ncc2Cl)c1 [WZ8040],,,,
,-0.478 °C,-0.368 °C,-0.481 °C,-0.95 °C,O=C(Nc1ccc(-c2ccnc(Nc3ccc(N4CCOCC4)cc3)n2)cc1)C1CCCN1 (centres unmarked) [XL019],,,,
,-0.0333 °C,0.807 °C,-0.972 °C,0.134 °C,COc1ccc(Cl)c(Nc2nc3ccccc3nc2NS(=O)(=O)c2cccc(NC(=O)C(C)(C)N)c2)c1 [XL147],,,,
,-0.38 °C,-0.663 °C,-0.666 °C,-1.16 °C,CCOc1cc(N2CCC(O)CC2)ccc1Nc1ncc2c(n1)N(C)c1ccccc1C(=O)N2C [XMD8-92],,,,
,-0.155 °C,-0.475 °C,-0.584 °C,-1.25 °C,C[C@@H](N)[C@H]1CC[C@H](C(=O)Nc2ccncc2)CC1 [Y-27632 2HCl],,,,
,-0.134 °C,-0.166 °C,-1.01 °C,-1.02 °C,Cc1cc(C)nc(NS(=O)(=O)c2ccc(NC(=S)NC(=O)COc3ccc(Br)cc3Cl)cc2)n1 [ZCL278],,,,
,-0.636 °C,-0.827 °C,-1.58 °C,-2.03 °C,CC(C)N(CCC(=O)c1ccc2ccccc2c1)Cc1ccccc1 [ZM 39923 HCl],,,,
,-0.383 °C,-0.336 °C,-0.525 °C,-0.758 °C,COc1cc2ncnc(Nc3ccc(Cl)cc3F)c2cc1OC [ZM 306416],,,,
,-1.9 °C,-0.146 °C,-1.06 °C,-0.816 °C,Cc1cc(F)c(Nc2ncnc3cc(OCc4ccccc4)ccc23)cc1O [ZM 323881 HCl],,,,
,-0.214 °C,-0.418 °C,-1 °C,-0.965 °C,Cc1ccc(NC(=O)c2cccc(N(C)C)c2)cc1NC(=O)c1ccc(O)cc1 [ZM 336372],,,,
,0.124 °C,0.111 °C,-0.965 °C,-0.314 °C,COc1cc2c(Nc3ccc(NC(=O)c4ccccc4)cc3)ncnc2cc1OCCCN1CCOCC1 [ZM 447439],,,,
,-0.113 °C,-0.199 °C,-1.02 °C,-0.762 °C,FC(F)c1nc2ccccc2n1-c1nc(N2CCOCC2)nc(N2CCOCC2)n1 [ZSTK474],,,,
,-0.286 °C,-0.269 °C,-0.396 °C,-0.534 °C,CO[C@H]1C[C@@H]2CC[C@@H](C)[C@@](O)(O2)C(=O)C(=O)N2CCCC[C@H]2C(=O)O[C@H]([C@H](C)C[C@@H]2CC[C@H](n3cnnn3)[C@H](OC)C2)CC(=O)[C@H](C)/C=C(\C)[C@@H](O)[C@@H](OC)C(=O)[C@H](C)C[C@H](C)/C=C/C=C/C=C/1C [Zotarolimus(ABT-578)],,,,

Compound,Kd [1],"ΔTm at 10 µM [2, 6]","ΔTm at 10 µM [3, 7]","ΔTm at 10 µM [4, 8]","ΔTm at 10 µM [5, 9]",ΔTm at 10 µM ([2]; read-out: dTm B),ΔTm at 10 µM ([3]; read-out: dTm B),ΔTm at 10 µM ([4]; read-out: dTm B),ΔTm at 10 µM ([5]; read-out: dTm B)
COC[C@H]1OC(=O)c2coc3c2[C@@]1(C)C1=C(C3=O)[C@@H]2CCC(=O)[C@@]2(C)C[C@H]1OC(C)=O [Wortmannin],,-0.289 °C,-0.299 °C,-0.735 °C,-1.08 °C,,,,
